From patent US9238034B2, “FN14 antagonists and therapeutic uses thereof” (THE TRANSLATIONAL GENOMICS RESEARCH INSTITUTE, priority 2013, dated 2016)
Positions count from the first letter of the chain named. Names and notes keep the numbering of the source.

T1: Fn14 (Homo sapiens, UniProt Q9NP84)
T1 construct: the human Fc fragment-tagged Fn14 extracellular domain (R&D Systems) was captured
T1 sequence (Q9NP84 28-80 limits assumed): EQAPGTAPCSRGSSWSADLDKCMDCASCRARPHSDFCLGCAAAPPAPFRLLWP

T2: TWEAK (Homo sapiens, UniProt O43508)
T2 sequence (O43508 94-249 limits assumed): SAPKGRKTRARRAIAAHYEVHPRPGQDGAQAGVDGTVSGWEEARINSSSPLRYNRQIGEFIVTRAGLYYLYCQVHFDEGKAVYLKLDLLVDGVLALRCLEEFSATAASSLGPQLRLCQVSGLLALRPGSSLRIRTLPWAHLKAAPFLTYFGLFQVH

B1: sTWEAK Y176A: soluble form of TWEAK (amino acids K97-H249) with Y176A substitution, made by IVTT (protein, UniProt O43508 97-249, looked up, variant Y176A)
chain: KGRKTRARRAIAAHYEVHPRPGQDGAQAGVDGTVSGWEEARINSSSPLRYNRQIGEFIVTRAGLYYLYCQVHFDEGKAVALKLDLLVDGVLALRCLEEFSATAASSLGPQLRLCQVSGLLALRPGSSLRIRTLPWAHLKAAPFLTYFGLFQVH
B2: sTWEAK Y176F: soluble form of TWEAK (amino acids K97-H249) with Y176F substitution, made by IVTT (protein, UniProt O43508 97-249, looked up, variant Y176F)
chain: B1 chain with A80F

How the values were obtained:
[1] = system: TNFα induction of NF-κB; test: TNFα induced counterscreen assay, HEK293 NF-κB Luc cells; assay type: cell-based, human
Source text: TNFα induction of the HEK293 NF-κB cell line was used as a counterscreen. […] Furthermore, we tested the two control compounds, LY294002 and BAY11-7082, in a drug dose-response format. […] We anticipate that compounds that directly affect Fn14 oligomerization, TWEAK ligation, or signaling proteins specific to the TWEAK-Fn14 signaling pathway that drive NF-κB activation will show minimal activity in the TNFα counterscreen assay. In order to eliminate the false positive hits from the pilot screen, we further performed the counterscreen by testing 35 “positives” from the Prestwick collection against HEK293 NF-KB-Luc control cell lines induced by TNFα. From this experiment we eliminated 28 compounds that inhibited luciferase expression after TNFα induction of HEK293 NF-KB Luc cells. Thus, after counterscreen only 7 compounds appeared to be specific inhibitors to the TWEAK-Fn14 signaling pathway. […] Overall, through our pilot primary screen and counterscreen, our hit rate approached 0.6% for this targeted collection. We expect a random collection to yield a lower hit-rate, which will be further reduced through the chemoinformatic filtering for luciferase false positive artifacts. Furthermore, secondary assays will be critical as cytotoxic false positives appeared to be about 80% from our pilot screen. […]

[2] = system: TWEAK-Fn14 signaling pathway; test: TWEAK induced Fn14-NF-κB Luc assay, optimized 384-well HTS format; assay type: cell-based, human; conditions: 1000 cells/well, 40 ng/mL TWEAK 8 hr, 1 hr pre-incubation
Source text: Human embryonic kidney cells (HEK293) express low levels of the Fn14 receptor. We developed a cell-based assay for the Fn14-TWEAK pathway signaling events using HEK293 cells that stably co-expresses high levels of full length Fn14 receptor and a firefly luciferase reporter driven by NF-KB-response elements (Fn14-NF-KB-Luc).
We optimized HEK293 Fn14-NF-KB Luc cell line for HTS by testing TWEAK-stimulated Luc-reporting as a function of growth medium, TWEAK concentration, induction time, assay duration, cell density, and DMSO concentration. For example, we seeded HEK293 Fn14-NF-KB-Luc and control cells (HEK293 NFKB-Luc) into a 96-well plate at a density of 10,000 cells/well, in DMEM or Opti-MEM® (Reduced serum media, protein concentration 15 μg/mL) and incubated at 37 C for 24 or 48 h. We then induced them with various concentrations of TWEAK in buffer or buffer alone (PBS+1 mg/mL BSA) for 5 hr and then measured firefly luciferase levels by chemiluminescence (Bright-Glo™ Promega). […] These initial conditions formed the basis for transfer of the assay into a 384-well format and further optimization with respect to cell seeding density, induction time, and TWEAK concentration.
We achieved the same conclusion from both 96-well and 384-well format that signal-to-background and fold-inductions are increased with increasing TWEAK concentration, peaking between 40-80 ng/mL and decreased at 100 ng/mL (FIGS. 20A and 20B). […] These conditions were further refined with respect to cell density (500-2500 cells per well), induction time (4-8 hr), and two TWEAK concentrations over a series of experiments in 384-well formats.
In the majority of seeding density conditions and two different TWEAK concentrations, the assay performance improved with increasing TWEAK induction time. At 8 hours of TWEAK stimulation, the fold induction (S/B) and Z′ factor was approximately 8-fold and 0.8, respectively, and the average % CV was 6.8%. […]

[3] = molecular target: T1, Fn14; test: Surface Plasmon Resonance assay, Fn14-Fc sensor surface; assay type: binding; conditions: SPR, 0 to 50 μM
Procedure: (§1) Surface Plasmon Resonance (SPR) Assay. The binding affinity of at least one of the compounds (e.g., L524-0366) to TWEAK and Fn14-Fx was determined using a BIAcore T100 optical biosensor (GE Healthcare) at 25 degrees Celsius at the Arizona Proteomics Consortium. Recombinant human TWEAK (20 μg/mL in 10 mM HEPES pH 7.4, 150 mM NaCl, 3 mM EDTA, 0.05% Tween 20) or recombinant human Fn14-Fc (20 μg/mL in 10 mM NaOAc pH 4.0) were covalently coupled to separate flow cells on a BIAcore CM5 sensor chip using standard amine coupling chemistry as per manufacturer's protocol. Final immobilization levels were 6000 Response Units (RU) for TWEAK and 13,000 RU for FN14-Fc. The first flow path of the chip was treated with the same coupling and blocking reagents without protein and was used as a reference for each binding cycle. Functionality of the TWEAK and the Fn14-Fc sensor surfaces were verified by injecting Fn14-Fc and TWEAK over them respectively. Serial dilutions of L524-0366 or cycloheximide (control) from 0 to 50 μM were made in running buffer (10 mM HEPES pH 7.4, 150 mM NaCl, 3 mM EDTA, 1% DMSO). […] Equilibrium dissociation constants for the small molecules were calculated by fitting the double reference subtracted data to Req=((CRmax)/(KD+C))+RI, where RI is the bulk refractive index contribution.

[4] = molecular target: T2, TWEAK; test: Surface Plasmon Resonance assay, TWEAK sensor surface; assay type: binding; conditions: SPR, 0 to 50 μM
Procedure: as §1

[5] = system: Fn14 signaling; test: NF-κB luciferase reporter assay with sTWEAK variants, HEK293 NF-κB luciferase cells overexpressing full length Fn14; assay type: cell-based, human; conditions: HEK293 NF-κB luciferase cells stably overexpressing full length Fn14, 5 hr
Procedure: (§2) NF-κB luciferase reporter Assay. The capacity of sTWEAK or sTWEAK variants to activate Fn14 signaling was evaluated using engineered reporter cell lines that express luciferase upon NF-κB activation. Two reporter cell lines were utilized for these experiments. HEK293 NF-κB luciferase (courtesy of Dr. Jeff Winkles) were generated by transfecting HEK293 cells with a reporter plasmid containing 5 copies of a consensus NF-κB binding site upstream of a minimal CMV promoter driving expression of firefly luciferase. The second cell line, designated HEK293 NF-κB luciferase Fn14 FL, was generated by stably transfecting the HEK293 NF-κB luciferase cell line with full length Fn14. To assay the binding of sTWEAK or sTWEAK variants to Fn14, reporter cells were seeded in tissue culture treated white 96-well plates at 1×10^4 cells/well in 80 μL Opti-MEM media (Invitrogen) and incubated for 48 hr at 37° C. After 48 hr incubation, 20 μL of 5× purified recombinant TWEAK (Peprotech Inc.; 150 ng/mL) in 1 mg/mL BSA in PBS was added to each well and incubated for 5 hr at 37° C. as positive control. Similarly, equivalent amounts of sTWEAK or sTWEAK variant prepared via IVTTas determined using ELISA assay described above was added in 20 μl. […] At the end of 5 hr incubation, the luminescent signal was determined using Bright-Glo assay kit (Promega, Madison, Wis.) according to the manufacturer's instructions.

[6] = system: Fn14 signaling; test: NF-κB luciferase reporter assay with sTWEAK variants, HEK293 NF-κB luciferase cells; assay type: cell-based, human; conditions: 5 hr
Procedure: as §2

Molecule | effect on TWEAK induced Fn14-NF-κB Luc signal [2] | induction of luciferase expression less relative to cells stimulated with sTWEAK [5] [%] | luciferase expression less than cells stimulated with sTWEAK [6] [%] | also measured
Cc1ccc(S(=O)(=O)/C=C/C#N)cc1 [BAY11-7082] | dose-dependent manner | – | – | drug inhibition of TNFα activation, Fn14 versus control cell lines ([1]; drug dose-response format, 40 ng/ml TNFα): no significant difference
C[C@@H]1C[C@H]2[C@@H]3CCC4=CC(=O)C=C[C@]4(C)[C@@]3(F)[C@@H](O)C[C@]2(C)[C@@]1(O)C(=O)CO [Dexamethasone, dexamethasone] | no effect | – | – | –
CC(C(=O)O)c1ccc(N2Cc3ccccc3C2=O)cc1 (centres unmarked) [Indoprofen] | drug sensitivity in a dose-dependent manner | – | – | effect in NF-KB Luc cells induced with TNFα ([1]; 10 μM, TNFα 40 ng/mL for 8 hours): no significant effect
C[C@@H]1C[C@@H]([C@H](O)CC2CC(=O)NC(=O)C2)C(=O)[C@@H](C)C1 [cycloheximide, reference compound] | – | – | – | binding to Fn14 [3]: did not show significant binding; binding to TWEAK [4]: did not show significant binding
B1 | – | 98 | 87 | –
B2 | – | 98 | 100 | –
